Measurements as given in patent publication US9284301B2, “Soluble guanylate cyclase activators” (Merck Sharp & Dohme Corp., priority 2010, dated 2016).

Molecular target: T1, sGC α1/β1 heterodimer (Homo sapiens, UniProt Q02108+Q02153)
T1 construct: expressed in transfected cells; host or cells: CHO-K1 (clone #7, CHO-K1/sGC)
T1 sequence (Q02108 1-690): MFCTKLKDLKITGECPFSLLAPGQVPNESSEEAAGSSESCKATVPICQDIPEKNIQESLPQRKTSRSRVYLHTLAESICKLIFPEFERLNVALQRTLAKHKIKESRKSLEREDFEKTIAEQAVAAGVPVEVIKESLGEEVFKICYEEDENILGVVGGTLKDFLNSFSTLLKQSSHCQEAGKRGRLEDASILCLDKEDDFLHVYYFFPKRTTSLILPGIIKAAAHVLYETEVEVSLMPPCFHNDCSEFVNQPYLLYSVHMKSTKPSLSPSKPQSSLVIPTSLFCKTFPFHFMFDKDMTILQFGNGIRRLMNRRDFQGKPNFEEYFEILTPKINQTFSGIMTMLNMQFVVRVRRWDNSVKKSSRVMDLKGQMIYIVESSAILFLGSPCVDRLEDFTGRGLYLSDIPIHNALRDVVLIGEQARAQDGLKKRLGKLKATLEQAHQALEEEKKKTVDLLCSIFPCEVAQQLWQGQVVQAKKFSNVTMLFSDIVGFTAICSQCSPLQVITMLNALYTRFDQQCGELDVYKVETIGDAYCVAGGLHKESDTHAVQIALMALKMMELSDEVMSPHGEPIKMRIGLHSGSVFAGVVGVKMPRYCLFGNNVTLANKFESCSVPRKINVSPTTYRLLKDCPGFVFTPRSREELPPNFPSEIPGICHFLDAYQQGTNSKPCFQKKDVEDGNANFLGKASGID
T1 sequence (Q02153 1-619): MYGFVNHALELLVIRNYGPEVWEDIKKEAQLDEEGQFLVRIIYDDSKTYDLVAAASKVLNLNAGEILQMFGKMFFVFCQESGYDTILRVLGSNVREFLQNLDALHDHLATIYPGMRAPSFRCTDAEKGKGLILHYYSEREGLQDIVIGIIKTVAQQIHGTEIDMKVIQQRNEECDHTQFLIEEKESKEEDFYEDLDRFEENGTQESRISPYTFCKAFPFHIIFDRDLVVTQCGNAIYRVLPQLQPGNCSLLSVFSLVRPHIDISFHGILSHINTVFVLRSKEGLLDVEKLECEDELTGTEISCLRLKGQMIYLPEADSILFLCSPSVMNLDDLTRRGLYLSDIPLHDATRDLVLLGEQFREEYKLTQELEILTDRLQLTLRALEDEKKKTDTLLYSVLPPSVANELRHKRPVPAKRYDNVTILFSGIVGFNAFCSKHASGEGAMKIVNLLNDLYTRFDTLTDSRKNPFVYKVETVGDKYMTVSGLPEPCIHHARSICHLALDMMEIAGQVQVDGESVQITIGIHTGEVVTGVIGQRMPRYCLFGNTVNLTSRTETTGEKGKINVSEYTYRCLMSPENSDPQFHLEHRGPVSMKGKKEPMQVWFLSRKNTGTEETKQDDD
Assay: Cell-based sGC Functional Assay (CASA Assay): cGMP generation in CHO-K1/sGC cells, HTRF readout
Conditions: without ODQ incubation; for EC50: read-out: IP (inflection point)
Excerpt: Cell-based sGC Functional Assay (CASA Assay) Rationale: sGC is a heme-containing enzyme that converts GTP to secondary messenger cGMP. Increases in cGMP levels affect several physiological processes including vasorelaxation through multiple downstream pathways. […] Heme-dependent activators (HDAs) preferentially activate sGC containing a ferrous Deme group. To determine the effect of sGC activators on enzyme activity, the CASA assay was developed to monitor the generation of cGMP in a cell line that stably expresses the heterodimeric sGC protein. Methods: A CHO-K1 cell line stably expressing the sGC α1/β1 heterodimer was generated using a standard transfection protocol. CHO-K1 cells were transfected with plasmids pIREShyghsGCα1 and pIRESneo-hsGCβ1 simultaneously using FUGENE reagent. Clones that stably express both subunits were selected with hygromycin and neomycin for ˜2 weeks. Clone #7 was chosen for the assay and was designated CHO-K1/sGC. CHO-K1/sGC cells were maintained in F-K12 medium containing 10% heat-inactivated Fetal Bovine Serum (FBS), 100 μg/mL penicillin/streptomycin, 0.5 mg/mL hygromycin and 0.25 mg/mL G418. On the day of the assay, cells were harvested in EBSS Assay Buffer (EAB) containing 5 mM MgCl2, 10 mM HEPES (4-(2-hydroxyethyl)piperazine-1-ethanesulfonic acid) and 0.05% BSA (bovine serum albumin) and cell density was adjusted to 2×10^6/mL with EAB. IBMX (3-isobutyl-1-methylxanthin, 0.5 mM) was added to inhibit degradation of cGMP. Compounds were diluted from DMSO stock solutions and added to the assay at a final DMSO concentration of 1%. Cells were incubated with compounds of the invention, in the presence and/or absence of 10 μM of 1H-(1,2,4)oxadiazolo(4,3-a) quinoxalin-1-one (ODQ), for 1 hr at 37° C. At the end of the incubation period, the reaction was terminated and the cells were lysed. The level of intracellular cGMP was determined using an HTRF-based assay kit (from CisBio, 62GM2PEC), which detects the displacement of a fluorescence labeled cGMP from its specific antibody. HTRF is a TR-FRET based technology that uses the principles of TRF and FRET. The amount of cGMP was plotted against compound concentration in PRISM software and the inflection point (IP) and maximum fold induction over DMSO control were derived from the plot.

Cc1c(-c2cnc(-c3nc(Cc4c(F)ccc(F)c4F)n4ncccc34)nc2N)c(C(F)(F)F)nn1C [Example 3, 5-[1,5-dimethyl-3-(trifluoromethyl)-1H-pyrazol-4-yl]-2-[7-(2,3,6-trifluorobenzyl)imidazo[1,5-b]pyridazin-5-yl]pyrimidin-4-amine]
Maximum fold induction over DMSO control: 71 fold | EC50: 499 nM

Cc1cc(-c2cnc(-c3nc(Cc4c(F)ccc(F)c4F)n4ncccc34)nc2N)ccn1 [Example 4, 5-(2-methylpyridin-4-yl)-2-[7-(2,3,6-trifluorobenzyl)imidazo[1,5-b]pyridazin-5-yl]pyrimidin-4-amine]
Maximum fold induction over DMSO control: 55 fold | EC50: 178 nM

Nc1nc(-c2nc(Cc3c(F)ccc(F)c3F)n3ncccc23)ncc1-c1cccc2ncccc12 [Example 7, 5-quinolin-5-yl-2-[7-(2,3,6-trifluorobenzyl)imidazo[1,5-b]pyridazin-5-yl]pyrimidin-4-amine]
Maximum fold induction over DMSO control: 129 fold | EC50: 296 nM

Nc1nc(-c2nc(Cc3c(F)ccc(F)c3F)n3cc(F)ccc23)ncc1-c1cccnc1 [Example 56, 2-[6-fluoro-3-(2,3,6-trifluorobenzyl)imidazo[1,5-a]pyridin-1-yl]-5-pyridin-3-ylpyrimidin-4-amine]
Maximum fold induction over DMSO control: 322 fold | EC50: 397 nM

Nc1nc(-c2nc(Cc3c(F)ccc(F)c3F)n3cc(F)ccc23)ncc1-c1ccnc2ccc(F)cc12 [Example 73, 5-(6-fluoroquinolin-4-yl)-2-[6-fluoro-3-(2,3,6-trifluoro-benzyl)imidazo[1,5-a]pyridin-1-yl]pyrimidin-4-amine]
Maximum fold induction over DMSO control: 234 fold | EC50: 170 nM

Cn1cc(-c2c(N)nc(-n3nc(Cc4c(F)ccc(F)c4F)c4cc(Cl)ccc43)nc2N)cn1 [Example 83, 2-[5-chloro-3-(2,3,6-trifluorobenzyl)-1H-indazol-1-yl]-5-(1-methyl-1H-pyrazol-4-yl)pyrimidine-4,6-diamine]
Maximum fold induction over DMSO control: 127 fold | EC50: 34 nM

Nc1nc(-n2nc(Cc3c(F)ccc(F)c3F)c3cc(Cl)ccc32)nc(N)c1NC(=O)C1CC1 [Example 178, N-{4,6-diamino-2-[5-chloro-3-(2,3,6-trifluorobenzyl)-1H-indazol-1-yl]pyrimidin-5-yl}cyclopropanecarboxamide]
Maximum fold induction over DMSO control: 74 fold | EC50: 524 nM

Nc1nc(-n2nc(CCC3CCCC3)c3ccccc32)nc(N)c1-c1cccnc1 [Example 208, 2-[3-(2-cyclopentylethyl)-1H-indazol-1-yl]-5-pyridin-3-ylpyrimidine-4,6-diamine]
Maximum fold induction over DMSO control: 244 fold | EC50: 540 nM
